Laboratory results reported in PMC8617031, “Development of a BCL-xL and BCL-2 dual degrader with improved anti-leukemic activity,” (Nature Communications, 2021).
Values joined by “and” are separate entries in the source; they are usually repeats but may differ in a detail not shown here. Identical values can stand only once.

Assays:
[1] = test system: BCL-2/PROTAC/VCB ternary complex (HiBit-BCL-2, HaloTag-VHL); assay: NanoBRET intracellular ternary complex formation in 293T cells, BCL-2; type: cell-based, human; conditions: for NanoBRET ratio (610/450 x1000, background-subtracted), Bcl-2, Ave / NanoBRET signal (610/450 ratio, background-subtracted), Ave, Bcl-2: Ave of Read1 and Read2; for NanoBRET ratio (610/450 x1000, background-subtracted), Bcl-2, Ave / NanoBRET ratio (610/450 x1000, background-subtracted), Bcl-2, Read1 / NanoBRET ratio (610/450 x1000, background-subtracted), Bcl-2, Read2: 293T cells, triplicate wells; for NanoBRET signal (610/450 ratio, background-subtracted), Ave, Bcl-2: per replicate well; for NanoBRET signal (610/450 ratio, background-subtracted), Read1, Bcl-2 / NanoBRET signal (610/450 ratio, background-subtracted), Read2, Bcl-2: individual replicate wells
Source text: (§1) Plasmids HaloTag-VHL (Cat. No. CS1679C155) and CMV HiBit (Cat. No. CS1956B03) were purchased from Promega. HiBit-BCL-xL and HiBit-BCL-2 were constructed previously. The two mutants (HiBit-BCL-xL-K157-only and HiBit-BCL-xL-K-ko) were constructed through Gibson assembly method. The primer pair (5′-[…]-3′ and 5′-[…]c[…]-3′) and the template Flag-BCL-xL-K157-only or Flag-BCL-xL-K-ko (pDL2129)[2] were used to clone the BCL-xL-K157-only-containing and BCL-xL-K-ko-containing fragments, respectively. The primer pair (5′-[…]g[…]-3′ and 5′-[…]-3′) and pBit3.1-N (Cat. No. N2361, Promega) were used to clone the vector-containing fragment. The PCR fragments were assembled using NEBuilder® HiFi DNA Assembly Master Mix (Cat. No. E2621, NEB, Ipswich, MA, USA). DNA sequences in all these plasmids were authenticated by automatic sequencing. […] After 24 h, 2 × 10^4 transfected cells were seeded into white 96-well tissue culture plates in Gibco™ Opti-MEM™ I Reduced Serum Medium, No Phenol Red (Cat. No. 11-058-021, Fisher) containing 4% FBS with or without HaloTag NanoBRET 618 Ligand (Cat. No. PRN1662, Promega) and incubated overnight at 37 °C, 5% CO2. The following day, serial diluted compounds were added into the medium and plates were incubated at 37 °C, 5% CO2, for 6 h. After treatment, NanoBRET Nano-Glo Substrate (cat. no. N1662, Promega) was added into the medium, and the contents were mixed by shaking the plate for 30 s before measuring donor and acceptor signals on Biotek plate reader. Dual-filtered luminescence was collected with a 450/50 nm bandpass filter (donor, NanoBiT-BCL-XL protein or NanoBiT-BCL-2 protein) and a 610-nm longpass filter (acceptor, HaloTag NanoBRET ligand) using an integration time of 0.5 s. mBRET ratios were calculated following the NanoBRET™ Nano-Glo® Detection System (Cat. No. N1662, Promega).

[2] = test system: BCL-xL/PROTAC/VCB ternary complex (HiBit-BCL-xL, HaloTag-VHL); assay: NanoBRET intracellular ternary complex formation in 293T cells, BCL-xL; type: cell-based, human; conditions: for NanoBRET ratio (610/450 x1000, background-subtracted), Bcl-xl, Ave / NanoBRET signal (610/450 ratio, background-subtracted), Ave, Bcl-xl: Ave of Read1 and Read2; for NanoBRET ratio (610/450 x1000, background-subtracted), Bcl-xl, Ave / NanoBRET ratio (610/450 x1000, background-subtracted), Bcl-xl, Read1 / NanoBRET ratio (610/450 x1000, background-subtracted), Bcl-xl, Read2: 293T cells, triplicate wells; for NanoBRET signal (610/450 ratio, background-subtracted), Ave, Bcl-xl: per replicate well; for NanoBRET signal (610/450 ratio, background-subtracted), Read1, Bcl-xl / NanoBRET signal (610/450 ratio, background-subtracted), Read2, Bcl-xl: individual replicate wells
Source text: as §1

Row | Compound | NanoBRET ratio (610/450 x1000, background-subtracted), Bcl-2, Ave ([1]; 0.333 uM) | NanoBRET ratio (610/450 x1000, background-subtracted), Bcl-2, Read1 ([1]; 0.333 uM) | NanoBRET ratio (610/450 x1000, background-subtracted), Bcl-2, Read2 ([1]; 0.333 uM) | NanoBRET ratio (610/450 x1000, background-subtracted), Bcl-2, Ave ([1]; 1 uM) | NanoBRET ratio (610/450 x1000, background-subtracted), Bcl-2, Read1 ([1]; 1 uM) | NanoBRET ratio (610/450 x1000, background-subtracted), Bcl-2, Read2 ([1]; 1 uM) | NanoBRET ratio (610/450 x1000, background-subtracted), Bcl-2, Ave ([1]; 3 uM) | NanoBRET ratio (610/450 x1000, background-subtracted), Bcl-2, Read1 ([1]; 3 uM) | NanoBRET ratio (610/450 x1000, background-subtracted), Bcl-2, Read2 ([1]; 3 uM) | NanoBRET ratio (610/450 x1000, background-subtracted), Bcl-xl, Ave ([2]; 0.333 uM) | NanoBRET ratio (610/450 x1000, background-subtracted), Bcl-xl, Read1 ([2]; 0.333 uM) | NanoBRET ratio (610/450 x1000, background-subtracted), Bcl-xl, Read2 ([2]; 0.333 uM) | NanoBRET ratio (610/450 x1000, background-subtracted), Bcl-xl, Ave ([2]; 1 uM) | NanoBRET ratio (610/450 x1000, background-subtracted), Bcl-xl, Read1 ([2]; 1 uM) | NanoBRET ratio (610/450 x1000, background-subtracted), Bcl-xl, Read2 ([2]; 1 uM) | NanoBRET ratio (610/450 x1000, background-subtracted), Bcl-xl, Ave ([2]; 3 uM) | NanoBRET ratio (610/450 x1000, background-subtracted), Bcl-xl, Read1 ([2]; 3 uM) | NanoBRET ratio (610/450 x1000, background-subtracted), Bcl-xl, Read2 ([2]; 3 uM) | other results
1 | Cc1ncsc1-c1ccc(C(C)NC(=O)C2CC(O)CN2C(=O)C(NC(=O)CCCC(=O)N2CCN(CC3(C)CCC(c4ccc(Cl)cc4)=C(CN4CCN(c5ccc(C(=O)NS(=O)(=O)c6ccc(NC(CCN7CCOCC7)CSc7ccccc7)c(S(=O)(=O)C(F)(F)F)c6)cc5)CC4)C3)CC2)C(C)(C)C)cc1 (mixture of isomers) [319-C5] | 5.628 and 6.032 and 6.002 | 5.8735 and 6.598 and 5.9581 | 5.383 and 5.466 and 6.046 | 7.014 and 6.158 and 6.868 | 6.748 and 6.437 and 7.054 | 7.2789 and 5.879 and 6.683 | 6.77 and 7.133 and 6.868 | 6.63 and 7.268 and 6.8218 | 6.909 and 6.997 and 6.914 | 6.339 and 5.781 and 6.072 | 6.257 and 5.719 and 6.3849 | 6.422 and 5.844 and 5.759 | 5.241 and 6.025 and 7.398 | 5.522 and 5.988 and 7.452 | 4.96 and 6.062 and 7.344 | 5.367 and 5.631 and 6.141 | 5.5804 and 5.686 and 6.375 | 5.154 and 5.575 and 5.907 | –
2 | Cc1ncsc1-c1ccc(C(C)NC(=O)C2CC(O)CN2C(=O)C(NC(=O)CCCCC(=O)N2CCN(CC3(C)CCC(c4ccc(Cl)cc4)=C(CN4CCN(c5ccc(C(=O)NS(=O)(=O)c6ccc(NC(CCN7CCOCC7)CSc7ccccc7)c(S(=O)(=O)C(F)(F)F)c6)cc5)CC4)C3)CC2)C(C)(C)C)cc1 (mixture of isomers) [319-C6] | 6.191 and 6.524 and 6.882 | 6.596 and 6.719 and 7.227 | 5.786 and 6.329 and 6.537 | 6.728 and 7.064 and 7.162 | 6.811 and 7.607 and 7.576 | 6.646 and 6.52 and 6.748 | 8.027 and 7.6 and 7.992 | 8.178 and 7.5868 and 7.751 | 7.877 and 7.613 and 8.232 | 6.174 and 6.1699 and 6.65 | 6.062 and 6.008 and 6.406 | 6.287 and 6.332 and 6.893 | 8.477 and 7.0143 and 7.515 | 8.852 and 7.285 and 8.097 | 8.103 and 6.744 and 6.934 | 8.009 and 9.063 and 8.852 | 8.381 and 8.755 and 9.483 | 7.637 and 9.371 and 8.221 | –
3 | Cc1ncsc1-c1ccc(C(C)NC(=O)C2CC(O)CN2C(=O)C(NC(=O)CCCCCC(=O)N2CCN(CC3(C)CCC(c4ccc(Cl)cc4)=C(CN4CCN(c5ccc(C(=O)NS(=O)(=O)c6ccc(NC(CCN7CCOCC7)CSc7ccccc7)c(S(=O)(=O)C(F)(F)F)c6)cc5)CC4)C3)CC2)C(C)(C)C)cc1 (mixture of isomers) [319-C7] | 6.052 and 6.92 and 7.6505 | 5.966 and 6.845 and 7.7752 | 6.137 and 6.996 and 7.5258 | 8.414 and 7.671 and 8.038 | 8.989 and 7.62 and 8.138 | 7.839 and 7.721 and 7.939 | 7.385 and 7.884 and 8.749 | 7.497 and 8.645 and 8.883 | 7.2733 and 7.122 and 8.615 | 6.383 and 6.41 and 6.027 | 6.118 and 6.864 and 6.2545 | 6.648 and 5.956 and 5.8 | 8.353 and 6.411 and 6.637 | 7.957 and 6.709 and 6.774 | 8.749 and 6.113 and 6.499 | 5.568 and 7.612 and 6.364 | 5.755 and 8.211 and 6.36 | 5.382 and 7.013 and 6.368 | –
4 | Cc1ncsc1-c1ccc(C(C)NC(=O)C2CC(O)CN2C(=O)C(NC(=O)CCCCCCC(=O)N2CCN(CC3(C)CCC(c4ccc(Cl)cc4)=C(CN4CCN(c5ccc(C(=O)NS(=O)(=O)c6ccc(NC(CCN7CCOCC7)CSc7ccccc7)c(S(=O)(=O)C(F)(F)F)c6)cc5)CC4)C3)CC2)C(C)(C)C)cc1 (mixture of isomers) [319-C8] | – | – | – | – | – | – | – | – | – | – | – | – | – | – | – | – | – | – | NanoBRET signal (610/450 ratio, background-subtracted), Ave, Bcl-2 ([1]; 0.333 uM): 6.709 and 6.763 and 6.945; NanoBRET signal (610/450 ratio, background-subtracted), Read1, Bcl-2 ([1]; 0.333 uM): 6.876 and 6.829 and 6.839; NanoBRET signal (610/450 ratio, background-subtracted), Read2, Bcl-2 ([1]; 0.333 uM): 6.543 and 6.698 and 7.051; NanoBRET signal (610/450 ratio, background-subtracted), Ave, Bcl-2 ([1]; 1 uM): 8.276 and 7.6621 and 8.376; NanoBRET signal (610/450 ratio, background-subtracted), Read1, Bcl-2 ([1]; 1 uM): 8.792 and 8.054 and 8.836; NanoBRET signal (610/450 ratio, background-subtracted), Read2, Bcl-2 ([1]; 1 uM): 7.759 and 7.2706 and 7.917; NanoBRET signal (610/450 ratio, background-subtracted), Ave, Bcl-2 ([1]; 3 uM): 8.696 and 8.738 and 7.9326; NanoBRET signal (610/450 ratio, background-subtracted), Read1, Bcl-2 ([1]; 3 uM): 8.912 and 9.6864 and 8.129; NanoBRET signal (610/450 ratio, background-subtracted), Read2, Bcl-2 ([1]; 3 uM): 8.48 and 7.79 and 7.737; NanoBRET signal (610/450 ratio, background-subtracted), Ave, Bcl-xl ([2]; 0.333 uM): 7.726 and 6.163 and 6.736; NanoBRET signal (610/450 ratio, background-subtracted), Read1, Bcl-xl ([2]; 0.333 uM): 7.612 and 5.878 and 6.37; NanoBRET signal (610/450 ratio, background-subtracted), Read2, Bcl-xl ([2]; 0.333 uM): 7.841 and 6.448 and 7.103; NanoBRET signal (610/450 ratio, background-subtracted), Ave, Bcl-xl ([2]; 1 uM): 7.132 and 7.494 and 7.451; NanoBRET signal (610/450 ratio, background-subtracted), Read1, Bcl-xl ([2]; 1 uM): 7.4 and 7.483 and 8.183; NanoBRET signal (610/450 ratio, background-subtracted), Read2, Bcl-xl ([2]; 1 uM): 6.864 and 7.506 and 6.7195; NanoBRET signal (610/450 ratio, background-subtracted), Ave, Bcl-xl ([2]; 3 uM): 8.664 and 8.41 and 8.787; NanoBRET signal (610/450 ratio, background-subtracted), Read1, Bcl-xl ([2]; 3 uM): 9.315 and 7.583 and 8.729; NanoBRET signal (610/450 ratio, background-subtracted), Read2, Bcl-xl ([2]; 3 uM): 8.012 and 9.238 and 8.844
